Experimental data as given in paper PMC8347481, “Germacranolides from Carpesium divaricatum: Some New Data on Cytotoxic and Anti-Inflammatory Activity” (Molecules, 2021).
Like-named read-outs stand apart in the source and are kept apart here. Values belong to the molecule of their own block, whether it stands above or below them.

Assays:
NF-κB = conditions: cited from earlier work
cancer cells = tested on: cancer cells; design: method as in PMID 30127485, PMID 22908556; conditions: cancer cells in vitro; cited from earlier work
[1] = tested on: IL-1β secretion by LPS-stimulated human neutrophils; test: IL-1β release, ELISA; format: cell-based; conditions: 0.5, 1.0 and 2.5 µM, 24 h after LPS stimulation
Procedure: (§1) In response to stimulation with proinflammatory agents, e.g., LPS or f-MLP, human neutrophils excrete an array of cytokines and chemokines, including TNF-α, IL-1β, IL-8 and CCL2 [29, 30]. In the present study, neutrophils were pretreated with the examined compounds (1 or 2) before their priming with LPS. Levels of IL-1β, IL-8, TNF-α and CCL2 were determined in the culture medium, using ELISA, 24 h after LPS stimulation.
(§2) Neutrophils (2 × 10^6) were cultured in 24-well plates in RPMI 1640 medium with 10% FBS, 10 mM HEPES and 2 mM L-glutamine, in the presence or absence of LPS (100 ng/mL) and in the absence or presence of 1 or 2 (final concentrations of the examined germacranolide in a range of 0.5–2.5 μM), at 37 °C with 5% CO2. The neutrophils were harvested after 24 h and centrifuged (2000 r.p.m., 10 min, 4 °C). The amount of released cytokines was measured by enzyme-linked immunosorbent assay (ELISA) following the manufacturer’s instructions (BD Biosciences, USA). The effects on IL-8, IL-1β, CCL2 and TNF-α production by the neutrophils were calculated by comparing the percentages of the released agents to the stimulated control without the tested compound.

[2] = tested on: human polymorphonuclear leukocytes (PMNs); test: Cytotoxicity to neutrophils, propidium iodide staining and flow cytometry; format: cell-based; conditions: at 2.5 µM or lower concentrations, 24 h incubation
Procedure: Cytotoxicity of 1 and 2 to human polymorphonuclear leukocytes (PMNs) was evaluated using propidium iodide (PI) staining and flow cytometry (FACS) analysis. The compounds were nontoxic in PMNs at 2.5 µM or lower concentrations (Figure 4).
Cytotoxicity was assessed by a standard flow cytometric probe using propidium iodide (PI) staining. After 24 h of incubation in the absence or presence of the tested germacranolide (at concentrations of 0.5, 1.0, 2.5 and 5.0 μM), the neutrophils (3.5 × 10^5) were harvested and centrifuged (1500 r.p.m., 10 min, 4 °C), washed once with cold PBS and resuspended in 400 μL of PBS. A 5 μL aliquot of PI solution (50 μg/mL) was added to the cell suspension. After 15 min of incubation with PI at room temperature, cells were analyzed by BD FACSCalibur flow cytometer (BD Biosciences, San Jose, CA, USA), and 10,000 events were recorded per sample.

[3] = tested on: CCL2 secretion by LPS-stimulated human neutrophils; test: CCL2 release, ELISA; format: cell-based; conditions: 0.5, 1.0 and 2.5 µM, 24 h after LPS stimulation
Procedure: as §1, §2

[4] = tested on: ROS release from f-MLP-stimulated human neutrophils; test: ROS production, luminol-dependent chemiluminescence; format: cell-based; conditions: f-MLP stimulation, concentration range 1–2.5 μM
Procedure: Activation of PMNs, either at a site of inflammation or induced in vitro by proinflammatory agents, results in an oxidative burst in these cells. The phenomenon is characterized by intense ROS generation and liberation of proteolytic enzymes from azurophilic granules. An effect of the sesquiterpene lactones 1 and 2 on ROS production in PMNs was assessed in response to N-formyl-Met-Leu-Phe (f-MLP) stimulation.
ROS production was measured using luminol-dependent chemiluminescence test. A 70 μL aliquot of neutrophil suspension (3.5 × 10^5) in (Ca^2+)-free HBSS buffer, 50 μL of the tested compound solution and 50 μL of luminol (100 μM) were added to a well in a 96-well plate. ROS production was initiated by the addition of f-MLP (30 μL of 0.1 μg/mL solution) to obtain a total volume of 200 μL per well. Chemiluminescence changes were measured for 40 min, at 2 min intervals, in a microplate reader (37 °C). The background chemiluminescence produced by nonstimulated cells was also determined. The percentage of inhibition was calculated by comparison to the stimulated control without the tested compound, at the maximum luminescence.

SAOS-2 = test: MTT viability test, osteosarcoma cells with p53 deletion; conditions: Homo sapiens
Procedure: (§6) Two osteosarcoma cell lines: U-2 OS (with wild-type p53 status) and SAOS-2 (p53 null cell line) were used to evaluate cytotoxic activity of 1 and 2. Doxorubicin was employed as a reference drug. Viability of the cells treated by 1 or 2 (concentration range 0.014–50.0 µM) for 24 and 48 h was assessed by thiazolyl blue tetrazolium bromide (MTT) test.
(§7) Human osteosarcoma cell lines U-2 OS (ATCC HTB-96; wild-type p53 status) and SAOS-2 (ATCC HTB-85; p53 deletion) were cultured in McCoy’s 5A medium containing L-glutamine and supplemented with 10% FBS at 37 °C and in a humidified atmosphere with 5% CO2. […] After that, working solutions were diluted with culture media to the final 1× concentrations (0.014–50 μM).
(§8) For the MTT assay, the osteosarcoma cells suspended in the nutrient medium were seeded into 96-well microtiter plates (density 1.0 × 10^4 per well) and preincubated for 24 h (37 °C, 5% CO2). Subsequently, the cells were treated with 1 or 2 at different concentrations (0.014–50 μM) and further cultivated for another 24 or 48 h. After that, MTT was added for 1 h at the final concentration of 500 ng/mL. The culture medium was removed and the formazan crystals were dissolved in isopropanol containing 40 mM HCl. Absorbance was measured using Tecan microplate reader at 570 nm with the reference wavelength of 650 nm. […] Data were analyzed using Origin software.

U-2 OS = test: MTT viability test, osteosarcoma cells with wild-type p53 status; conditions: Homo sapiens, U2OS
Procedure: as §6, §7, §8

[5] = tested on: IL-8 secretion by LPS-stimulated human neutrophils; test: IL-8 release, ELISA; format: cell-based; conditions: 0.5, 1.0 and 2.5 µM, 24 h after LPS stimulation
Procedure: as §1, §2

HepG2 cells = tested on: HepG2 cells; design: method as in PMID 35520265; conditions: cited from earlier work
HaCaT = test: LDH cell viability assay, keratinocytes; format: cell-based, human; conditions: Homo sapiens, 24 h, LDH assay, read-out: IC50
Procedure: (§3) Normal prostate epithelial cells (PNT2), two prostate cancer cell lines (Du145 and PC3), human keratinocytes (HaCaT), two melanoma cell lines (A375 and HTB140) and two colon cancer cell lines (HT29 and Caco-2) were treated with 3 at a concentration range 1.0–50.0 µg/mL. Viability of the cells was estimated using lactate dehydrogenase (LDH) assay.
(§4) Cytotoxic activity of 3 was tested on human cancer and normal cells, grouped in three panels: prostate, skin and gastrointestinal. The prostate panel comprised prostate cancer cell lines DU145 (ATCC HTB-81) and PC3 (ATCC CRL-1435) and prostate normal epithelial cells PNT2 (ECACC 95012613). Melanoma cell lines A375 (ATCC CRL-1619) and HTB140 (ATCC Hs 294T) together with human keratinocytes HaCaT (obtained as a kind gift of Prof. Marta Michalik, Department of Cell Biology, Jagiellonian University) were included in the skin panel. Two colon cancer cell lines, namely Caco-2 (ATCC HTB-37) and HT29 (ATCC HTB-38), constituted the gastrointestinal panel. Du145 cells were grown in a modified Eagle’s medium with low (1.0 g/L) glucose concentration; HT29, PC3 and PNT-2 cells were grown in Dulbecco’s modified Eagle’s medium (DMEM) and F12 HAM Nutrient Mixture; Caco-2 cells were grown in modified Eagle’s medium with nonessential amino acids (NEAA); and melanoma cells and keratinocytes were maintained in modified Eagle’s medium with high (4.5 g/L) glucose concentration. The culture media contained antibiotics and 10% fetal bovine serum (FBS). All cultures were maintained at 37 °C in a humidified, 5% CO2-containing atmosphere.
(§5) The examined compound (3) was diluted in the culture media from freshly made stock solution in MeOH (10 mg/mL) to the working concentrations (from 0 to 50 μg/mL). Cell viability was determined as described previously. […] Then, the culture medium was replaced with the medium containing different concentrations of the assessed compound (1–50 μg/mL). After 24 h of incubation, the viability of the cells was determined using colorimetric lactate dehydrogenase (LDH) assay in comparison to the controls to which corresponding aliquots of MeOH diluted with culture media were added. Cells grown in the medium without the tested compound were used as control I (negative), and the positive control (control II) was obtained by incubation of the cells in the medium containing 1% Triton X-100. LDH released from the damaged cells into the cell culture medium was quantified by measuring the absorbance at 490 nm using a Synergy II Biotek microplate reader. Cytotoxicities of the examined compounds were calculated as follows: ((absorbance of the tested sample−absorbance of control I)/(absorbance of control II−absorbance of control I)) × 100. Results were means of three independent measurements (± SD). Doxorubicin (Ebewe Pharma G.m.b.H., Unterach, Austria) was used as a reference cytostatic drug.

[6] = tested on: normal and cancer cell lines (prostate, skin, gastrointestinal panels); test: LDH cytotoxicity, whole panel of normal and cancer cell lines; format: cell-based; conditions: Homo sapiens; 24 h treatment, cell density 1.5 × 10^4; doxorubicin: except PC3 cells; read-out: IC50 range over the cell lines
Procedure: Cytotoxic activity of 3 was tested on human cancer and normal cells, grouped in three panels: prostate, skin and gastrointestinal. The prostate panel comprised prostate cancer cell lines DU145 (ATCC HTB-81) and PC3 (ATCC CRL-1435) and prostate normal epithelial cells PNT2 (ECACC 95012613). Melanoma cell lines A375 (ATCC CRL-1619) and HTB140 (ATCC Hs 294T) together with human keratinocytes HaCaT (obtained as a kind gift of Prof. Marta Michalik, Department of Cell Biology, Jagiellonian University) were included in the skin panel. Two colon cancer cell lines, namely Caco-2 (ATCC HTB-37) and HT29 (ATCC HTB-38), constituted the gastrointestinal panel. […]
The examined compound (3) was diluted in the culture media from freshly made stock solution in MeOH (10 mg/mL) to the working concentrations (from 0 to 50 μg/mL). Cell viability was determined as described previously. […] Then, the culture medium was replaced with the medium containing different concentrations of the assessed compound (1–50 μg/mL). After 24 h of incubation, the viability of the cells was determined using colorimetric lactate dehydrogenase (LDH) assay in comparison to the controls to which corresponding aliquots of MeOH diluted with culture media were added. […] LDH released from the damaged cells into the cell culture medium was quantified by measuring the absorbance at 490 nm using a Synergy II Biotek microplate reader. […]

HTB140 = test: LDH cell viability assay, melanoma cells; format: cell-based; conditions: Homo sapiens; HTB140, 24 h, LDH assay; read-out: IC50
Procedure: as §3, §4, §5

A375 = test: LDH cell viability assay, melanoma cells; format: cell-based; conditions: Homo sapiens, A-375; A375, 24 h, LDH assay; read-out: IC50
Procedure: as §3, §4, §5

PC3 = test: LDH cell viability assay, prostate cancer cells; format: cell-based; conditions: Homo sapiens, PC-3; PC3, 24 h, LDH assay; read-out: IC50
Procedure: as §3, §4, §5

MCF-7 cell line = tested on: MCF-7 cell line; design: method as in PMID 30127485; conditions: cited from earlier work
[7] = tested on: TNF-α secretion by LPS-stimulated human neutrophils; test: TNF-α release, ELISA; format: cell-based
Procedure: as §1, §2

PC3 cells = tested on: PC3 cells; design: method as in PMID 33968193; conditions: cited from earlier work

Molecule: 2β,5-epoxy-5,10-dihydroxy-6α-angeloyloxy-9β-isobutyryloxy-germacran-8α,12-olide
NF-κB inhibitory effect (NF-κB; concentration of 10 μM): NF-κB inhibitory effect was shown
IC50 (cancer cells): > 7.9 µM

IC50 (SAOS-2; SAOS-2, 24 h): 5.21 µM
IC50 (SAOS-2; SAOS-2, 48 h): 3.57 µM
IC50 (U-2 OS; 24 h): 3.18 µM
IC50 (U-2 OS; 48 h): 2.52 µM
Molecule: C=C1C(=O)O[C@H]2[C@H]1[C@@H](O)[C@H](OC(=O)CC(C)C)[C@H](C)CCC(=O)[C@](C)(O)[C@@H]2OC(=O)/C(C)=C\C [Compound 2, 4β,8α-dihydroxy-5β-angeloyloxy-9β-(3-methylbutyryloxy)-3-oxo-germacran-6α,12-olide]
IL-1β production upon LPS stimulation [1]: significant and dose-dependent inhibition
Cytotoxicity to PMNs (propidium iodide staining) [2]: nontoxic
CCL2 production upon LPS stimulation [3]: significant and dose-dependent inhibition
ROS generation [4]: significantly and dose-dependently reduced ROS generation
IL-8 production upon LPS stimulation [5]: significant and dose-dependent inhibition

Molecule: Cardivarolide H
Apoptosis induction (HepG2 cells): appeared to induce apoptosis

Molecule: COc1cccc2c1C(=O)c1c(O)c3c(c(O)c1C2=O)C[C@@](O)(C(=O)CO)C[C@@H]3O[C@H]1C[C@H](N)[C@H](O)[C@H](C)O1 [Doxorubicin, reference compound]
IC50 (HaCaT): > 4.68 µg/mL
IC50 (SAOS-2; SAOS-2, 24 h): 4.36 µM
IC50 (SAOS-2; SAOS-2, 48 h): 0.08 µM
IC50 (U-2 OS; 24 h): 1.87 µM
IC50 (U-2 OS; 48 h): 0.17 µM
IC50 [6]: 1.1 to 10.5 µM
IC50 (HTB140): > 5.71 µg/mL
IC50 (A375): 0.59 ± 0.04 µg/mL
IC50 (PC3): > 50 µg/mL

IC50 (SAOS-2; SAOS-2, 24 h): 9.11 µM
IC50 (SAOS-2; SAOS-2, 48 h): 6.76 µM
IC50 (U-2 OS; 24 h): 7.77 µM
IC50 (U-2 OS; 48 h): 5.1 µM
Molecule: C=C1C(=O)O[C@H]2[C@H]1[C@@H](O)[C@H](OC(=O)C(C)CC)[C@H](C)CCC(=O)[C@](C)(O)[C@@H]2OC(=O)/C(C)=C\C (stereo partly drawn) [Compound 1, 4β,8α-dihydroxy-5β-angeloyloxy-9β-(2-methylbutyryloxy)-3-oxo-germacran-6α,12-olide]
Cytotoxicity (MCF-7 cell line): resistant
TNF-α secretion ([7]; lowest concentration (0.5 μM)): could not be achieved
TNF-α release ([7]; only in the two higher concentrations (1.0 and 2.5 μM), 24 h after LPS stimulation): statistically significant reduction
IL-1β production upon LPS stimulation [1]: significant and dose-dependent inhibition
Cytotoxicity to PMNs (propidium iodide staining) [2]: nontoxic
CCL2 production upon LPS stimulation [3]: significant and dose-dependent inhibition
ROS generation [4]: significantly and dose-dependently reduced ROS generation
IL-8 production upon LPS stimulation [5]: significant and dose-dependent inhibition

Molecule: C=C1C(=O)O[C@H]2[C@H]1[C@@H](OC(=O)C(C)C)C(=O)[C@H](C)CCC[C@](C)(O)[C@@H]2OC(=O)C(C)C [incaspitolide A, Incaspitolide A]
Apoptosis induction (PC3 cells): appeared to induce apoptosis

Molecule: 2α,5-epoxy-5,10-dihydroxy- 6α-angeloyloxy-9β-(3-methylbutyryloxy)-germacran-8α,12-olide
NF-κB inhibitory effect (NF-κB; concentration range 1–10 μM): NF-κB inhibitory effect was shown
IC50 (cancer cells): > 7.6 µM
